Results taken from patent publication US9546156B2, “N-bicyclic aryl,N'-pyrazolyl urea, thiourea, guanidine cyanoguanidine compounds as TrkA kinase inhibitors” (Array BioPharma Inc., priority 2012, dated 2017).

Tests used:
PKAC-alpha = target: T1, PKAC-alpha (Homo sapiens, UniProt P17612); assay: Off-target kinase profiling (KinaseProfiler); assay type: biochemical; details: 10 μM, ATP near Km
T1 construct: purchased Millipore, Inc. (KinaseProfiler service)
Procedure, shortened: (§1)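 Single-point screen at 10 μM compound, run in duplicate with ATP near the Km of each kinase. Activity is expressed as percent of control (POC), averaged across both replicates.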

CHK2 = target: T2, CHK2 (Homo sapiens, UniProt O96017); assay: Off-target kinase profiling (KinaseProfiler); assay type: biochemical; details: 10 μM, ATP near Km
T2 construct: purchased Millipore, Inc. (KinaseProfiler service)
Procedure, shortened: as §1

MKK6 = target: T3, MKK6 (Homo sapiens, UniProt P52564); assay: Off-target kinase profiling (KinaseProfiler); assay type: biochemical; details: 10 μM, ATP near Km
T3 construct: purchased Millipore, Inc. (KinaseProfiler service)
Procedure, shortened: as §1

TAO1 = target: T4, TAO1 (Homo sapiens, UniProt Q7L7X3); assay: Off-target kinase profiling (KinaseProfiler); assay type: biochemical; details: 10 μM, ATP near Km
T4 construct: purchased Millipore, Inc. (KinaseProfiler service)
Procedure, shortened: as §1

Rsk3 = target: T5, Rsk3 (Homo sapiens, UniProt Q15349); assay: Off-target kinase profiling (KinaseProfiler); assay type: biochemical; details: 10 μM, ATP near Km
T5 construct: purchased Millipore, Inc. (KinaseProfiler service)
Procedure, shortened: as §1

VRK2 = target: T6, VRK2 (Homo sapiens, UniProt Q86Y07); assay: Off-target kinase profiling (KinaseProfiler); assay type: biochemical; details: 10 μM, ATP near Km
T6 construct: purchased Millipore, Inc. (KinaseProfiler service)
Procedure, shortened: as §1

IGF-1R = target: T7, IGF-1R (Homo sapiens, UniProt P08069); assay: Off-target kinase profiling (KinaseProfiler); assay type: biochemical; details: 10 μM, ATP near Km
T7 construct: purchased Millipore, Inc. (KinaseProfiler service)
Procedure, shortened: as §1

SRPK1 = target: T8, SRPK1 (Homo sapiens, UniProt Q96SB4); assay: Off-target kinase profiling (KinaseProfiler); assay type: biochemical; details: 10 μM, ATP near Km
T8 construct: purchased Millipore, Inc. (KinaseProfiler service)
Procedure, shortened: as §1

FAK2 = target: T9, FAK2 (Homo sapiens, UniProt Q14289); assay: Off-target kinase profiling (KinaseProfiler); assay type: biochemical; details: 10 μM, ATP near Km
T9 construct: purchased Millipore, Inc. (KinaseProfiler service)
Procedure, shortened: as §1

MuSK = target: T10, MuSK (Homo sapiens, UniProt O15146); assay: Off-target kinase profiling (KinaseProfiler); assay type: biochemical; details: 10 μM, ATP near Km
T10 construct: purchased Millipore, Inc. (KinaseProfiler service)
Procedure, shortened: as §1

TAO2 = target: T11, TAO2 (Homo sapiens, UniProt Q9UL54); assay: Off-target kinase profiling (KinaseProfiler); assay type: biochemical; details: 10 μM, ATP near Km
T11 construct: purchased Millipore, Inc. (KinaseProfiler service)
Procedure, shortened: as §1

BTK = target: T12, BTK (Homo sapiens, UniProt Q06187); assay: Off-target kinase profiling (KinaseProfiler); assay type: biochemical; details: 10 μM, ATP near Km
T12 construct: purchased Millipore, Inc. (KinaseProfiler service)
Procedure, shortened: as §1

LIMK1 = target: T13, LIMK1 (Homo sapiens, UniProt P53667); assay: Off-target kinase profiling (KinaseProfiler); assay type: biochemical; details: 10 μM, ATP near Km
T13 construct: purchased Millipore, Inc. (KinaseProfiler service)
Procedure, shortened: as §1

Syk = target: T14, Syk (Homo sapiens, UniProt P43405); assay: Off-target kinase profiling (KinaseProfiler); assay type: biochemical; details: 10 μM, ATP near Km
T14 construct: purchased Millipore, Inc. (KinaseProfiler service)
Procedure, shortened: as §1

NLK = target: T15, NLK (Homo sapiens, UniProt Q9UBE8); assay: Off-target kinase profiling (KinaseProfiler); assay type: biochemical; details: 10 μM, ATP near Km
T15 construct: purchased Millipore, Inc. (KinaseProfiler service)
Procedure, shortened: as §1

PKD1 = target: T16, PKD1 (Homo sapiens, UniProt Q15139); assay: Off-target kinase profiling (KinaseProfiler); assay type: biochemical; details: 10 μM, ATP near Km
T16 construct: purchased Millipore, Inc. (KinaseProfiler service)
Procedure, shortened: as §1

EphA8 = target: T17, EphA8 (Homo sapiens, UniProt P29322); assay: Off-target kinase profiling (KinaseProfiler); assay type: biochemical; details: 10 μM, ATP near Km
T17 construct: purchased Millipore, Inc. (KinaseProfiler service)
Procedure, shortened: as §1

PTK5 = target: T18, PTK5 (Homo sapiens, UniProt P42685); assay: Off-target kinase profiling (KinaseProfiler); assay type: biochemical; details: 10 μM, ATP near Km
T18 construct: purchased Millipore, Inc. (KinaseProfiler service)
Procedure, shortened: as §1

SIK = target: T19, SIK (Homo sapiens, UniProt P57059); assay: Off-target kinase profiling (KinaseProfiler); assay type: biochemical; details: 10 μM, ATP near Km
T19 construct: purchased Millipore, Inc. (KinaseProfiler service)
Procedure, shortened: as §1

CHK1 = target: T20, CHK1 (Homo sapiens, UniProt O14757); assay: Off-target kinase profiling (KinaseProfiler); assay type: biochemical; details: 10 μM, ATP near Km
T20 construct: purchased Millipore, Inc. (KinaseProfiler service)
Procedure, shortened: as §1

mTOR = target: T21, mTOR (Homo sapiens, UniProt P42345); assay: Off-target kinase profiling (KinaseProfiler); assay type: biochemical; details: 10 μM, ATP near Km
T21 construct: purchased Millipore, Inc. (KinaseProfiler service)
Procedure, shortened: as §1

PDGFRbeta = target: T22, PDGFRbeta (Homo sapiens, UniProt P09619); assay: Off-target kinase profiling (KinaseProfiler); assay type: biochemical; details: 10 μM, ATP near Km
T22 construct: purchased Millipore, Inc. (KinaseProfiler service)
Procedure, shortened: as §1

JNK3 = target: T23, JNK3 (Homo sapiens, UniProt P53779); assay: Off-target kinase profiling (KinaseProfiler); assay type: biochemical; details: 10 μM, ATP near Km
T23 construct: purchased Millipore, Inc. (KinaseProfiler service)
Procedure, shortened: as §1

[1] = target: T24, His-tagged recombinant human TrkA (Homo sapiens, UniProt P04629); assay: TrkA LanthaScreen Eu Kinase Binding Assay; details: averaged IC50; TR-FRET binding assay, 60 min, 22° C.; read-out: TrkA Enzyme IC50
T24 construct: 6HIS tagged cytoplasmic domain from Invitrogen, Catalog No. PV3144; purchased Invitrogen PV3144
Description: TrkA binding activity was determined in a TrkA LanthaScreen™ Eu Kinase Binding Assay. 5 nM His-tagged recombinant human TrkA (6HIS tagged cytoplasmic domain from Invitrogen, Catalog No. PV3144) was incubated with 4 nM Alexa-Fluor® Tracer 236 (Invitrogen Cat. No. PV5592), 2 nM biotinylated anti-His (Invitrogen Cat. No. PV6090), and 2 nM europium-labeled Streptavidin (Invitrogen Cat. No. PV5899), in buffer (25 mM MOPS, pH 7.5, 5 mM MgCl2, 0.005% Triton X-100). Three fold serial dilutions of compounds of the invention in DMSO were added to a final percentage of 2% DMSO. After 60-minute incubation at 22° C., the reaction was measured using the EnVision multimode plate reader (PerkinElmer) via TR-FRET dual wavelength detection at […]. The percent of control was calculated using a ratiometric emission factor. The IC50 values were determined by fitting a four parameter model to the percent of control data.
Table A provides averaged IC50 values for compounds of the invention when tested in the assay of Example A, where A represents an averaged IC50 value <100 nM; B represents an averaged IC50 value from 100 to 1,000 nM; and C represents an averaged IC50 value from 1,000 to 10,000 nM.

T20 sequence (O14757 whole entry): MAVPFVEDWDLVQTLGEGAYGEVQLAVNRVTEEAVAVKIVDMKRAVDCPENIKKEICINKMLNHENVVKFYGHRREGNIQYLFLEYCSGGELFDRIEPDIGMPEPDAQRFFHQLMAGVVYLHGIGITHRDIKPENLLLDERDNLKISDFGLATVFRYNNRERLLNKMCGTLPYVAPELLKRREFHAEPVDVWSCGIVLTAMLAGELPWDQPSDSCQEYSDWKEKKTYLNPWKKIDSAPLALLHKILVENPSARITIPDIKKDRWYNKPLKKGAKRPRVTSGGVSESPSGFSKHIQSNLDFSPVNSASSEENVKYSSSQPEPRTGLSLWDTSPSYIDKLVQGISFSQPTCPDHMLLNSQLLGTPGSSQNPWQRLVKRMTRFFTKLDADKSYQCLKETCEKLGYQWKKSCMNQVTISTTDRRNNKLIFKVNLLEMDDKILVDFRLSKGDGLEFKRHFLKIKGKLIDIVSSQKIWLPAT
T6 sequence (Q86Y07 whole entry): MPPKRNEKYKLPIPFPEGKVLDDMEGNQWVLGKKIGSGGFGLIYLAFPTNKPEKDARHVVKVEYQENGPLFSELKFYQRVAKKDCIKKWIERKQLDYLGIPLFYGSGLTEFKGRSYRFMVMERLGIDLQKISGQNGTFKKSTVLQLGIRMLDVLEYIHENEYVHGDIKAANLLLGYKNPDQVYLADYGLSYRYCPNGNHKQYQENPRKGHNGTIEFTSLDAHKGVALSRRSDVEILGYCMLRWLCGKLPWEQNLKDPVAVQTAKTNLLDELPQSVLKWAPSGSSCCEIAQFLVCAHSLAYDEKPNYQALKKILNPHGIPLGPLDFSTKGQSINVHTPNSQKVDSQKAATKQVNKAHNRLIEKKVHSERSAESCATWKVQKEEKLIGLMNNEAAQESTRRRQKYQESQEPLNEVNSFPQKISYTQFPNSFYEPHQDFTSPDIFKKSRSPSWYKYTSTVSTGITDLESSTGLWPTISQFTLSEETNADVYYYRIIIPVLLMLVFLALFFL
T11 sequence (Q9UL54 whole entry): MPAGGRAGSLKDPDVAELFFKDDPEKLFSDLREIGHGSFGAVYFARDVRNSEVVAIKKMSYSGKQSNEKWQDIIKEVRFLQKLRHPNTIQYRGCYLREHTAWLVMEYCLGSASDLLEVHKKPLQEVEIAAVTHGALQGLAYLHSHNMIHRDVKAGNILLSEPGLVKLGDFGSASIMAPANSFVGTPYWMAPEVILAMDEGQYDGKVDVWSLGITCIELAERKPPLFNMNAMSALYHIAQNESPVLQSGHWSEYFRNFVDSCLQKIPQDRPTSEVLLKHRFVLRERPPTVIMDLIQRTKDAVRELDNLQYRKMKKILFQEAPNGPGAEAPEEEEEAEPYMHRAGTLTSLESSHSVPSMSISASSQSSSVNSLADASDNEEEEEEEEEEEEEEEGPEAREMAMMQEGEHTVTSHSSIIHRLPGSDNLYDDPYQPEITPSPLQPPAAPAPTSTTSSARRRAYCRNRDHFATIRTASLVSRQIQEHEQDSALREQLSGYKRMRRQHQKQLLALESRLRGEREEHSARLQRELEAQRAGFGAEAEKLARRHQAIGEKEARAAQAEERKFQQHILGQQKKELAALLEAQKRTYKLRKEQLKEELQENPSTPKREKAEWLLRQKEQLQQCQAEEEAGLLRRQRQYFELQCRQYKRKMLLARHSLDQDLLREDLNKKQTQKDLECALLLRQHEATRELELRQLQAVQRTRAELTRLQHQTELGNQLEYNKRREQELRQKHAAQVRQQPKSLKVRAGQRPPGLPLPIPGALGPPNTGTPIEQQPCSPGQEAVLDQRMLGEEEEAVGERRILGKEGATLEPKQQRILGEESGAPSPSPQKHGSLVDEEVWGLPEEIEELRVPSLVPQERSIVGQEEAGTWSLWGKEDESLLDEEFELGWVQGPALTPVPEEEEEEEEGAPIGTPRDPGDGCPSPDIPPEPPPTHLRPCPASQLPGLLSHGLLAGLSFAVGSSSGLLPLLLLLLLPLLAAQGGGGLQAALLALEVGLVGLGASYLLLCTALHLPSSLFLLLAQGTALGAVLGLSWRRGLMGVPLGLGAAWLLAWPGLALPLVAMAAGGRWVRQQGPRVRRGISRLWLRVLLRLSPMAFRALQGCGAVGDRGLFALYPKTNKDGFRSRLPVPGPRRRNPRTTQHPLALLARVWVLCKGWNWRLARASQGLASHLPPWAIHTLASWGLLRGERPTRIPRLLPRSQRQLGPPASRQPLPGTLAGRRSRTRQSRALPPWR
T9 sequence (Q14289 whole entry): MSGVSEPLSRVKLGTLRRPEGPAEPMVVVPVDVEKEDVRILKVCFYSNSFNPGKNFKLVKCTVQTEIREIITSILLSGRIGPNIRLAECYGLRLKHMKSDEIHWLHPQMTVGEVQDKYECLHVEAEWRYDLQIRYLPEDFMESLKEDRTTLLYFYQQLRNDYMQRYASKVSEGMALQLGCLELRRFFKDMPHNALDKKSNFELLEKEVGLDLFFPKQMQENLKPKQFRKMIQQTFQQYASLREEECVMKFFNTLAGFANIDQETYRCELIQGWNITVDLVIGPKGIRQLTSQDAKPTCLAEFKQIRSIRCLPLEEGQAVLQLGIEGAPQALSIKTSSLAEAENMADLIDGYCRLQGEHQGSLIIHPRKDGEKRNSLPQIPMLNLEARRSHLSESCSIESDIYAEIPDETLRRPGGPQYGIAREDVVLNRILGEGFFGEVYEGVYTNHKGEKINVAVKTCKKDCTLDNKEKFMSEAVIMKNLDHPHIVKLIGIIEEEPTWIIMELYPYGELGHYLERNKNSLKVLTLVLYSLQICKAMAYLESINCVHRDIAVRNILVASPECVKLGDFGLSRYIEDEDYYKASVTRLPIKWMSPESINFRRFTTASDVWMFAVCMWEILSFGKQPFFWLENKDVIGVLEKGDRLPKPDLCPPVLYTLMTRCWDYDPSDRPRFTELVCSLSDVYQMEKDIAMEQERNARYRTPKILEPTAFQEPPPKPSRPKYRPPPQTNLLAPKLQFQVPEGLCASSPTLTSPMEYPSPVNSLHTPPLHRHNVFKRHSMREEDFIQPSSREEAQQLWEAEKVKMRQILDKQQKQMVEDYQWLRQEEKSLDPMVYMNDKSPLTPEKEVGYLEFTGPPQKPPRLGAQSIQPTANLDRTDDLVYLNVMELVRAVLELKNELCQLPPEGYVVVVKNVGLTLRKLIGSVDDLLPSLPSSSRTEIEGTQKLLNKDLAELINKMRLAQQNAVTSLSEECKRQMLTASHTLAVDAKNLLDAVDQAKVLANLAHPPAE
T19 sequence (P57059 whole entry): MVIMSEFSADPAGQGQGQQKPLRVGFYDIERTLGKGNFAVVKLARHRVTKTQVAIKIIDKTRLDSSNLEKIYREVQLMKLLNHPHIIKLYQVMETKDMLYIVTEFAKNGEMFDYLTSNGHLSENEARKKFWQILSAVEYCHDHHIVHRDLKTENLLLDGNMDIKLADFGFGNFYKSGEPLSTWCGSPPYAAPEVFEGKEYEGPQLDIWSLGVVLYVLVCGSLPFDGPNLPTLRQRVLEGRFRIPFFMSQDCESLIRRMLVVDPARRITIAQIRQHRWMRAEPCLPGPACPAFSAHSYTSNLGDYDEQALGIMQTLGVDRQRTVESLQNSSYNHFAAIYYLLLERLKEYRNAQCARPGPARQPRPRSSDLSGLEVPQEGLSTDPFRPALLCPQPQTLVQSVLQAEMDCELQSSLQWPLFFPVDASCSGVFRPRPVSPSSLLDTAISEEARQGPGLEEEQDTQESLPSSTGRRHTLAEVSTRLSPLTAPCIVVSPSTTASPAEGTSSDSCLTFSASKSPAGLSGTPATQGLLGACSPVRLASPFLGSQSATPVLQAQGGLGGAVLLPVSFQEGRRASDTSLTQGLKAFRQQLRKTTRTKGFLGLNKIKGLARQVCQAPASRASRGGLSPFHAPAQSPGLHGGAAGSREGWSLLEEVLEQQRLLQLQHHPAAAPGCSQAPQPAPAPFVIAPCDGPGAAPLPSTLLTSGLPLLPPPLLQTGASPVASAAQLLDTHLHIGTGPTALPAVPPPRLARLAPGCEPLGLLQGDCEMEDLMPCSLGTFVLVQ
T15 sequence (Q9UBE8 whole entry): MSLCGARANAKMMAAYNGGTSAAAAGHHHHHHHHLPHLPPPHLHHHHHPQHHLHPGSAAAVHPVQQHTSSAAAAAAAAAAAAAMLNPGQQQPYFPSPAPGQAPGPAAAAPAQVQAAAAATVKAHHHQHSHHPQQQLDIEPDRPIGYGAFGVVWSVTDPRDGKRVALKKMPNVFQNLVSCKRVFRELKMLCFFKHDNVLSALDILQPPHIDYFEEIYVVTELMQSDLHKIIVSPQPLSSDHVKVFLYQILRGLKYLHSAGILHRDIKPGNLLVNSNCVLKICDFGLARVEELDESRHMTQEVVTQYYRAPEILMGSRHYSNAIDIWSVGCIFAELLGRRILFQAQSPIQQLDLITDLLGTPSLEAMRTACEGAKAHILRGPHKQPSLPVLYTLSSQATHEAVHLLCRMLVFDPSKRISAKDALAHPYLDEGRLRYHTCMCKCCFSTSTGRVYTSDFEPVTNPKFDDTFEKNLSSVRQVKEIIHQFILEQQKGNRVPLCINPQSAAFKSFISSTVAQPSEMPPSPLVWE
T18 sequence (P42685 whole entry): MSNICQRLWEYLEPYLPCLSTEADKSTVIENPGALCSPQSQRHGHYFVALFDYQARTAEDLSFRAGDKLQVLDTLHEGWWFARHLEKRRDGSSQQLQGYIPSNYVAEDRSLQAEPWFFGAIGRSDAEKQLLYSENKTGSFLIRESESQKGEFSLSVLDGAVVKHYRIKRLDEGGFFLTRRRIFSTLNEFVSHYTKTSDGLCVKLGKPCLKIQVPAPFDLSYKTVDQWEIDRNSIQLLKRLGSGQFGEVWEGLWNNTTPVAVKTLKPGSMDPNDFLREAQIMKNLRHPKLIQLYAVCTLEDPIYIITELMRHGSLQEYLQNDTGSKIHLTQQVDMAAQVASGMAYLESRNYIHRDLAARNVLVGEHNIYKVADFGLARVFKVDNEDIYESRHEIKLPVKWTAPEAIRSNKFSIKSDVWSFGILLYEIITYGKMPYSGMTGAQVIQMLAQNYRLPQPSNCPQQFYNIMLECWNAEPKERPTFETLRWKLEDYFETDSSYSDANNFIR

## COCc1ccc2cccc(NC(=O)Nc3c(C)c(-c4cnn(C)c4)nn3-c3ccccc3)c2c1 [Example 16, 1-(1′,4-dimethyl-1-phenyl-1H,1′H-[3,4′-bipyrazol]-5-yl)-3-(7-(methoxymethyl)naphthalen-1-yl)urea]
PKAC-alpha
  Avg POC: 134 POC
CHK2
  Avg POC: 110.5 POC
MKK6
  Avg POC: 94.5 POC
TAO1
  Avg POC: 104.5 POC
Rsk3
  Avg POC: 106.5 POC
VRK2
  Avg POC: 110 POC
IGF-1R
  Avg POC: 81 POC
SRPK1
  Avg POC: 119 POC
FAK2
  Avg POC: 117.5 POC
MuSK
  Avg POC: 94 POC
TAO2
  Avg POC: 119.5 POC
BTK
  Avg POC: 121.5 POC
LIMK1
  Avg POC: 105.5 POC
Syk
  Avg POC: 117.5 POC
NLK
  Avg POC: 113.5 POC
PKD1
  Avg POC: 117.5 POC
EphA8
  Avg POC: 112.5 POC
PTK5
  Avg POC: 118.5 POC
SIK
  Avg POC: 121 POC
CHK1
  Avg POC: 139.5 POC
mTOR
  Avg POC: 110 POC
PDGFRbeta
  Avg POC: 136.5 POC
JNK3
  Avg POC: 132 POC
[1]
  IC50: < 100 nM
